The values that follow come from patent US7244738B2, “Arylamine-substituted quinazolinone compounds useful as alpha 1A/B adrenergic receptor antagonists” (Roche Palo Alto LLC, priority 2003, dated 2007).

Counter-ions that a name gives are not always drawn.

With `COc1cc2[nH]c(N(C)Cc3cccc(/N=C(/C)N(C)C)c3)nc(=O)c2c(OC)c1OC` [Example 197, N,N-Dimethyl-N′-(3-{[methyl-(5,6,7-trimethoxy-4-oxo-1,4-dihydro-quinazolin-2-yl)-amino]-methyl}-phenyl)acetamidine], the melting point was in the range of 199 to 201 °C. In the case of `COc1ccc(CN(C)c2nc(=O)c3c(OC)c(OC)c(OC)cc3[nH]2)cc1OCC(CO)CO` (as salt: HCl) [Example 3, 2-{[3-(3-Hydroxy-2-hydroxymethyl-propoxy)-4-methoxy-benzyl]-methyl-amino}-5,6,7-trimethoxy-1H-quinazolin-4-one] it was 139.7 to 146.6 °C. In the case of `COc1cc2[nH]c(N(C)Cc3cccc(Nc4cc(C)nc(Cl)n4)c3)nc(=O)c2c(OC)c1OC` [Example 218, 2-{[3-(2-Chloro-6-methyl-pyrimidin-4-ylamino)-benzyl]-methyl-amino}-5,6,7-trimethoxy-1H-quinazolin-4-one] it was 185.5 to 187.1 °C; in that of `COCCOC(=O)N(C)Cc1ccc(CN(C)c2nc(=O)c3c(C)c(OC)c(OC)cc3[nH]2)cc1` [Example 9, (4-{[(6,7-Dimethoxy-5-methyl-4-oxo-1,4-dihydro-quinazolin-2-yl)-methyl-amino]-methyl}-benzyl)-methyl-carbamic acid 2-methoxy-ethyl ester], 159.4 to 160.4 °C. Next, `COCCCOc1cccc(CN(C)c2nc(=O)c3c(C)c(OC)c(OC)cc3[nH]2)c1` [Example 162, 6,7-Dimethoxy-2-{[3-(3-methoxy-propoxy)-benzyl]-methyl-amino}-5-methyl-1H-quinazolin-4-one]: 150.1 to 152 °C; `COCCOc1cccc(CN(C)c2nc(=O)c3c(C)c(OC)c(OC)cc3[nH]2)c1` [Example 160, 6,7-Dimethoxy-2-{[3-(2-methoxy-ethoxy)-benzyl]-methyl-amino}-5-methyl-1H-quinazolin-4-one]: 176.6 to 177.9 °C; `COc1cc2[nH]c(N(C)Cc3cccc(C(C)N(C)S(C)(=O)=O)c3)nc(=O)c2c(OC)c1OC` (centres unmarked) [Example 292, N-Methyl-N-[1-(3-{[methyl-(5,6,7-trimethoxy-4-oxo-1,4-dihydro-quinazolin-2-yl)-amino]-methyl}-phenyl)-ethyl]-methanesulfonamide]: 171 to 172.4 °C.

With `COC(=O)N(C)c1cccc(CN(C)c2nc(=O)c3c(C)c(OC)c(OC)cc3[nH]2)c1` [Example 178, (3-{[(6,7-Dimethoxy-5-methyl-4-oxo-1,4-dihydro-quinazolin-2-yl)-methyl-amino]-methyl}-phenyl)-methyl-carbamic acid methyl ester], the melting point is 191.9 to 194.1 °C. The compound `COc1cc2[nH]c(N(C)Cc3cccc(OCC(O)CO)c3)nc(=O)c2c(C)c1OC` (centres unmarked) (as salt: HCl) [Example 7, 2-{[3-(2,3-Dihydroxy-propoxy)-benzyl]-methyl-amino}-6,7-dimethoxy-5-methyl-1H-quinazolin-4-one] came in with a melting point of 220 to 224 °C.

In turn, `COc1cc2[nH]c(N(C)Cc3cccc(CN4CCC(OC)C4)c3)nc(=O)c2c(C)c1OC` (centres unmarked) [Example 37, 6,7-Dimetrhoxy-2-{[3-(3-methoxy-pyrrolidin-1-ylmethyl)-benzyl]-methyl-amino}-5-methyl-1H-quinazolin-4-one] yielded a melting point of 151.2 to 152.9 °C. Next, `COCCOc1cccc(CN(C)c2nc(=O)c3c(OC)c(OC)c(OC)cc3[nH]2)c1` [Example F-11, 5,6,7-Trimethoxy-2-{[3-(2-methoxy-ethoxy)-benzyl]-methyl-amino}-1H-quinazolin-4-one]: 144.8 to 145.9 °C; `COc1cc2[nH]c(N(C)Cc3cccc(N=C4NCCN4)c3)nc(=O)c2c(C)c1OC` [Example G-38, 2-{[3-(Imidazolidin-2-ylideneamino)-benzyl]-methyl-amino}-6,7-dimethoxy-5-methyl-1H-quinazolin-4-one]: 141.3 to 144.7 °C; `COc1cc2[nH]c(N(C)Cc3cccc(N4CCNC4=O)c3)nc(=O)c2c(OC)c1OC` [Example 261, 5,6,7-Trimethoxy-2-{methyl[3-(2-oxo-imidazolidin-1-yl)-benzyl]-amino}-1H-quinazolin-4-one]: 130 to 133 °C. In the case of `COc1cc2[nH]c(N(C)C(C)c3cccc(NCCNC(C)=O)c3)nc(=O)c2c(C)c1OC` (centres unmarked) [Example 191, N-[2-(3-{1-[(6,7-Dimethoxy-5-methyl-4-oxo-1,4-dihydro-quinazolin-2-yl)-methyl-amino]-ethyl}-phenylamino)-ethyl]-acetamide] it was 220.6 to 222.4 °C. In the case of `COc1cc2[nH]c(N(C)Cc3ccc(CN)cc3)nc(=O)c2c(C)c1OC` (as salt: HCl) [Example 42, 2-[(4-Aminomethyl-benzyl)-methyl-amino]-6,7-dimethoxy-5-methyl-1H-quinazolin-4-one] it was 248.2 to 249.4 °C; in that of `COc1cc2[nH]c(N(C)Cc3ccc(N4CCCC4=O)cc3)nc(=O)c2c(OC)c1OC` [Example 12, 5,6,7-Trimethoxy-2-{methyl-[4-(2-oxo-pyrrolidin-1-yl)-benzyl]-amino}-1H-quinazolin-4-one], 195.9 to 197.4 °C. For `COc1cc2nc(N(C)Cc3cccc(N4CCCC4)c3)[nH]c(=O)c2cc1OC` (as salt: salt) [Example A-1, 6,7-Dimethoxy-2-[methyl-(3-pyrrolidin-1-yl-benzyl)-amino]-1H-quinazolin-4-one], the melting point was 220 to 223 °C. Next, `COc1cc2[nH]c(N(C)Cc3cccc(-n4cccn4)c3)nc(=O)c2c(C)c1OC` [Example 232, 6,7-Dimethoxy-5-methyl-2-[methyl-(3-pyrazol-1-yl-benzyl)-amino]-1H-quinazolin-4-one]: 220.8 to 224.1 °C. Next, `COc1cc2[nH]c(N(C)Cc3cccc(N=C(C(C)C)N(C)C)c3)nc(=O)c2c(OC)c1OC` [Example G-32, N,N-Dimethyl-N′-(3-{[methyl-(5,6,7-trimethoxy-4-oxo-1,4-dihydro-quinazolin-2-yl)-amino]-methyl}-phenyl)-isobutyramidine]: 148 to 150 °C; `COc1cc2[nH]c(N(C)Cc3cccc(CN4CCCC4)c3)nc(=O)c2c(OC)c1OC` [Example 46, 5,6,7-Trimethoxy-2-[methyl-(3-pyrrolidin-1-ylmethyl-benzyl)-amino]-1H-quinazolin-4-one]: 127 to 129.9 °C.

As for `COc1cc2[nH]c(N(C)Cc3cccc(NCc4ncc[nH]4)c3)nc(=O)c2c(OC)c1OC` [Example 220, 2-({3-[(1H-Imidazol-2-ylmethyl)-amino]-benzyl}-methylamino)-5,6,7-trimethoxy-1H-quinazolin-4-one], the melting point fell in the range of 125 to 131 °C. Consider `COc1cc2nc(N(C)Cc3cccc(C4=NCCN4C)c3)[nH]c(=O)c2c(C)c1OC` [Example H-2, 6,7-Dimethoxy-5-methyl-2-{methyl-[3-(1-methyl-4,5-dihydro-1H-imidazol-2-yl)-benzyl]-amino}-1H-quinazolin-4-one], for which the melting point was 145 to 148 °C. For the compound `COc1cc2[nH]c(N(C)Cc3cccc(N4CCN=C4C)c3)nc(=O)c2c(C)c1OC` [Example H-6, 6,7-Dimethoxy-5-methyl-2-{methyl-[3-(2-methyl-4,5-dihydro-imidazol-1-yl)-benzyl]-amino}-1H-quinazolin-4-one], the melting point lay in the range of 177 to 180 °C. In the case of `COCCC(=Nc1cccc(CN(C)c2nc(=O)c3c(OC)c(OC)c(OC)cc3[nH]2)c1)N(C)C` [Example G-36, 3-Methoxy-N,N-dimethyl-N′-(3-{[methyl-(5,6,7-trimethoxy-4-oxo-1,4-dihydro-quinazolin-2-yl)-amino]-methyl}-phenyl)-propionamidine] it was 145 °C; in that of `COc1cc2[nH]c(N(C)Cc3cccc(C(C)N(C)C)c3)nc(=O)c2c(OC)c1OC` (centres unmarked) [Example 62, 2-{[3-(1-Dimethylamino-ethyl)-benzyl]-methyl-amino}-5,6,7-trimethoxy-1H-quinazolin-4-one], 122.6 to 125.5 °C. Next, `COc1cc2[nH]c(N(C)Cc3cccc(OCC(=O)O)c3)nc(=O)c2c(OC)c1OC` [Example 158, (3-{[Methyl-(5,6,7-trimethoxy-4-oxo-1,4-dihydro-quinazolin-2-yl)-amino]-methyl}-phenoxy)-acetic acid]: more than 300 °C; `COc1cc2[nH]c(N(C)Cc3ccc(CN(C)CCC(F)(F)F)cc3)nc(=O)c2c(OC)c1OC` [Example 1, 5,6,7-Trimethoxy-2-[methyl-(4-{[methyl-(3,3,3-trifluoro-propyl)-amino]-methyl}-benzyl)-amino]-1H-quinazolin-4-one]: 97.8 to 101.9 °C. Next, `COc1cc2[nH]c(N(C)Cc3cccc(CNC(C)C)c3)nc(=O)c2c(C)c1OC` [Example 67, 2-{[3-(Isopropylamino-methyl)-benzyl]-methyl-amino}-6,7-dimethoxy-5-methyl-1H-quinazolin-4-one]: 143.3 to 144.4 °C; `CNCC(=O)N(C)C(C)c1cccc(CN(C)c2nc(=O)c3c(C)c(OC)c(OC)cc3[nH]2)c1` (centres unmarked) [Example 52, N-[1-(3-{[(6,7-Dimethoxy-5-methyl-4-oxo-1,4-dihydro-quinazolin-2-yl)-methyl-amino]-methyl}-phenyl)-ethyl]-N-methyl-2-methylamino-acetamide]: 118.1 to 120.8 °C. In turn, `COc1cc2[nH]c(N(C)Cc3cccc(N(C)CCCO)c3)nc(=O)c2c(OC)c1OC` (as salt: HCl) [Example 187] came in with a melting point of 156 to 157.2 °C. Next, `CCN(C)Cc1cccc(CN(C)c2nc(=O)c3c(OC)c(OC)c(OC)cc3[nH]2)c1` [Example 114, 2-({3-[(Ethyl-methyl-amino)-methyl]-benzyl}-methyl-amino)-5,6,7-trimethoxy-1H-quinazolin-4-one]: 106.5 to 108.9 °C; `COc1cc2[nH]c(N(C)Cc3cccc(N=CN(C)C)c3)nc(=O)c2c(C)c1OC` [Example G-30, N′-(3-{[(6,7-Dimethoxy-5-methyl-4-oxo-1,4-dihydro-quinazolin-2-yl)-methyl-amino]-methyl}-phenyl)-N,N-dimethyl-formamidine]: 185 to 186 °C.

Broadly, the melting point is the temperature of the solid-liquid transition.
